# Assay results: PMC10419307, “The Effect of Metal Ions (Fe, Co, Ni, and Cu) on the Molecular-Structural, Protein Binding, and Cytotoxic Properties of Metal Pyridoxal-Thiosemicarbazone Complexes” (International Journal of Molecular Sciences, 2023)
# Read-outs that look alike come from different tables or passages of the source.
# Assays:
# [1] = molecular target: T1, bovine serum albumin (BSA) (Bos taurus, UniProt P02769); assay: Spectrofluorometric titration, binding to BSA; details: for ΔHb / ΔSb: van't Hoff, 300-310 K
# T1 construct: purchased Merck
# T1 sequence (P02769 25-607): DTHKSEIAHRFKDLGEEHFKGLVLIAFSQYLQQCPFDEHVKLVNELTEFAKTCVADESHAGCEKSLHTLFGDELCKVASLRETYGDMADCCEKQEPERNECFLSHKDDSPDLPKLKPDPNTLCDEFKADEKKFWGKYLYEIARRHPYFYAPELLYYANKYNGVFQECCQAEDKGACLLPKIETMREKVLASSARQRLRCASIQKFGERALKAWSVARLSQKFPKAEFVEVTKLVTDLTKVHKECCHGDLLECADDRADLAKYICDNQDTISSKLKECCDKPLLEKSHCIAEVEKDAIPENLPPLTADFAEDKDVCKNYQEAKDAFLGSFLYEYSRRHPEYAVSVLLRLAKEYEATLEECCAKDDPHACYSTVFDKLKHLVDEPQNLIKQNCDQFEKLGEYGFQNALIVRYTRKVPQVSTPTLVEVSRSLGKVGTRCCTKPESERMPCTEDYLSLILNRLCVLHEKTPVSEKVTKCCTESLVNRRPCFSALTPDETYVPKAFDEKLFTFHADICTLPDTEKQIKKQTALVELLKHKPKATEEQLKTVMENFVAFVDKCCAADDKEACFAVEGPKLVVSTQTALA
# Protocol: (§1) The binding affinities of complexes towards bovine serum albumin (BSA) and human serum albumin (HSA) were analyzed using the spectrofluorometric measurements on the Cary Eclipse MY2048CH03 instrument. The scan rate was set to 600 nm min^−1, with both slits being 5 nm. The excitation wavelength for BSA was set to 295 nm and for HSA to 280 nm. These wavelengths are characteristic of the tryptophan residues in the active pocket of proteins. The spectra were recorded from 310 to 500 nm. The concentration of both proteins was held constant at 5 × 10^−6 M, and prepared in 1 M phosphate buffer saline of pH 7.4.
# (§2) The measurements were repeated at three temperatures (27, 32, and 37 °C) to mimic the body temperature and to allow for the calculation of the thermodynamic parameters of binding using the vant’t Hoff equation (Equation (2)):(2) lnKb=−ΔHb/RT+ΔSb/R where ΔHb, ΔSb, and ΔGb represent the change in the enthalpy, entropy, and free energy of the binding process, respectively.
# [2] = test system: HCT116 colorectal carcinoma; assay: MTT viability assay; format: cell-based, Human; details: 72 h
# Protocol: (§3) Human cell lines (A375 melanoma, MCF-7 breast cancer, HCT116 colorectal carcinoma, A2780 ovarian cancer, and MRC5 lung fibroblasts) were purchased from American Type Culture Collection (Rockville, MD, USA).
# (§4) The A2780 cells were cultivated in DMEM, while all of the other cell lines were cultivated in the HEPES-buffered RPMI-1640 medium. The cell culture mediums were supplemented with penicillin (100 units/mL), streptomycin (100 μg/mL), and 10% inactivated FBS. All of the cells were cultivated at 37 °C in a humidified atmosphere with 5% CO2.
# (§5) The cells were seeded overnight in 96-well plates: A2780 and MRC-5 8 × 10^3 cells/well, HCT 116 6 × 10^3 cells/well, A375 5 × 10^3 cells/well, and MCF-7 at 10 × 10^3 cells/well [58]. All of the cells were treated with the following concentrations of investigated compounds: 100, 50, 25, 12.5, 6.25, 3.125, and 1.56 μM, except for the A2780 cells, which were treated with the following concentrations for the Cu compound only: 25, 12.5, 6.25, 3.125, 1.56, 0.78, and 0.39 μM. After 72 h of treatment, viability assays were conducted.
# A375 melanoma [3] = assay: MTT viability assay; format: cell-based, Human; details: 72 h
# Protocol: as §3, §4, §5
# MCF-7 breast cancer [4] = assay: MTT viability assay; format: cell-based, Human; details: MCF-7, MTT, 72 h
# Protocol: as §3, §4, §5
# MRC5 lung fibroblasts [5] = assay: MTT viability assay; format: cell-based, Human; details: 72 h
# Protocol: as §3, §4, §5
# A2780 ovarian cancer [6] = assay: MTT viability assay; format: cell-based, Human; details: 72 h
# Protocol: as §3, §4, §5
# [7] = molecular target: human serum albumin (HSA) (Homo sapiens, UniProt P02768); assay: Spectrofluorometric titration, binding to HSA; details: for ΔHb / ΔSb: van't Hoff, 300-310 K
# Chain of human serum albumin (HSA) (P02768 25-609): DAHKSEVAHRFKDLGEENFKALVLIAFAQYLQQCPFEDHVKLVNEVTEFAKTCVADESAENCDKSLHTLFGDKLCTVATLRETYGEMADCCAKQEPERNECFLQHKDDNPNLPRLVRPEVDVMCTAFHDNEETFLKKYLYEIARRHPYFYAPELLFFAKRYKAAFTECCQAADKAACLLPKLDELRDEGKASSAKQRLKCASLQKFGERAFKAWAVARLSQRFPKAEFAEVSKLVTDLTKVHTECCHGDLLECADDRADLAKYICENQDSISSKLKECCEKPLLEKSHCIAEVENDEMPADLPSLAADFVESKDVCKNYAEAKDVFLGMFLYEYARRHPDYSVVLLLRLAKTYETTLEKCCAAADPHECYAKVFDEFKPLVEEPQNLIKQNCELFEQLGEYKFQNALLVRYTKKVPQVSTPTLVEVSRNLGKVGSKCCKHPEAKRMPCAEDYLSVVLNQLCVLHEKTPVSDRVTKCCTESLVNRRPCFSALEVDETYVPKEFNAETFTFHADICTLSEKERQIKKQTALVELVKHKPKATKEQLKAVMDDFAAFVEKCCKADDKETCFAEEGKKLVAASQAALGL
# Protocol: as §1, §2
# [8] = test system: HCT116 colorectal carcinoma; assay: CV viability assay; format: cell-based, Human; details: 72 h
# Protocol: as §3, §4, §5
# A375 melanoma [9] = assay: CV viability assay; format: cell-based, Human; details: 72 h
# Protocol: as §3, §4, §5
# MCF-7 breast cancer [10] = assay: CV viability assay; format: cell-based, Human; details: MCF-7, CV, 72 h
# Protocol: as §3, §4, §5
# MRC5 lung fibroblasts [11] = assay: CV viability assay; format: cell-based, Human; details: 72 h
# Protocol: as §3, §4, §5
# A2780 ovarian cancer [12] = assay: CV viability assay; format: cell-based, Human; details: 72 h
# Protocol: as §3, §4, §5
# BSA = molecular target: T2, BSA (Bos taurus, UniProt P02769); assay: Competitive spectrofluorometric measurements with warfarin; format: binding, bovine; details: for number of binding sites (n), competitive measurements with warfarin: BSA with equimolar warfarin; for BSA subdomain the complex binds to: concluded from competition with warfarin
# T2 construct: purchased Merck
# T2 sequence (P02769 25-607): as the sequence (P02769 25-607) above
# Protocol: as §1
# The competitive measurements were performed in the presence of warfarin, a site-specific marker for BSA subdomain IIA [33]. The equimolar concentrations of BSA and warfarin were prepared (5 × 10^−6 M), and after 30 min of incubation, the titrations using the solutions of the investigated complexes were conducted. The final concentrations of the added complexes were the same as for the previous experiments.
# MCF-7 breast cancer [13] = test system: MCF-7 breast cancer; parameters: method as in PMID 36364539; details: MCF-7, MTT test; cited from earlier work
SMILES,n (number of binding places) ([1]; T 300 K),ΔGb ([1]; T 300 K) [kcal/mol],n (number of binding places) ([1]; T 305 K),ΔGb ([1]; T 305 K) [kcal/mol],n (number of binding places) ([1]; T 310 K),ΔGb ([1]; T 310 K) [kcal/mol],ΔHb [1] [kcal/mol],IC50 [2] [µM],IC50 (A375 melanoma [3]) [µM],IC50 (MCF-7 breast cancer [4]) [µM],IC50 (MRC5 lung fibroblasts [5]) [µM],IC50 (A2780 ovarian cancer [6]) [µM],n (number of binding places) ([7]; T 300 K),ΔGb ([7]; T 300 K) [kcal/mol],n (number of binding places) ([7]; T 305 K),ΔGb ([7]; T 305 K) [kcal/mol],n (number of binding places) ([7]; T 310 K),ΔGb ([7]; T 310 K) [kcal/mol],ΔHb [7] [kcal/mol],ΔSb [7] [J mol^−1 K^−1],also measured
"Cc1[nH+]cc(CO)c(C=NNC(N)=S)c1[O-].Cc1[nH+]cc(CO)c(C=NNC(N)=S)c1[O-].O.O=[N+]([O-])[O-].O=[N+]([O-])[O-].[Ni+2] [Ni-PLTSC, Ni-pyridoxal-thiosemicarbazone]",1.2,-9.97,1.2,-9.8,1.2,-9.66,-19,> 100,> 100,> 100,> 100,> 100,1.2,-8.87,1.2,-8.89,1.2,-8.89,-7.5,15.5,"ΔSb [1]: −126 J mol^−1 K^−1; IC50 [8]: > 100 µM; IC50 (A375 melanoma [9]): > 100 µM; IC50 (MCF-7 breast cancer [10]): > 100 µM; IC50 (MRC5 lung fibroblasts [11]): > 100 µM; IC50 (A2780 ovarian cancer [12]): > 100 µM; number of binding sites (n), competitive measurements with warfarin (BSA): 1.30; BSA subdomain the complex binds to (BSA): subdomain IIIA"
"Cc1[nH+]cc(CO)c(C=NNC(N)=S)c1[O-].O.[Cl-].[Cl-].[Cl-].[Fe+3] [Fe-PLTSC, [Fe(PLTSC)Cl2(H2O)]Cl]",1.1,-7.03,1.1,-7.22,1.1,-7.39,3.7,> 100,> 100,> 100,> 100,86.3 ± 13.1,1.2,-8.08,1.2,-8.46,1.1,-8.82,13.9,307,"ΔSb [1]: 149 J mol^−1 K^−1; IC50 [8]: > 100 µM; IC50 (A375 melanoma [9]): > 100 µM; IC50 (MCF-7 breast cancer [10]): > 100 µM; IC50 (MRC5 lung fibroblasts [11]): > 100 µM; IC50 (A2780 ovarian cancer [12]): 93.5 ± 9.2 µM; number of binding sites (n), competitive measurements with warfarin (BSA): 1.10; BSA subdomain the complex binds to (BSA): subdomain IIIA"
N.N.[Cl][Pt][Cl] [cisplatin],,,,,,,,,,,,,,,,,,,,,IC50 (MCF-7 breast cancer [13]): 33.6 ± 4.8 µM
Cc1[nH+]cc(CO)c(C=NN=C(N)[S-])c1[O-].Cc1[nH+]cc(CO)c(C=NN=C(N)[S-])c1[O-].O.[Cl-].[Co+3] [Co-PLTSC],1.1,-7.34,1.1,-7.74,1.1,-8.15,16.8,> 100,> 100,> 100,> 100,> 100,1.0,-6.74,1.0,-6.91,1.0,-7.05,3.04,136,"IC50 [8]: > 100 µM; IC50 (A375 melanoma [9]): > 100 µM; IC50 (MCF-7 breast cancer [10]): > 100 µM; IC50 (MRC5 lung fibroblasts [11]): > 100 µM; IC50 (A2780 ovarian cancer [12]): > 100 µM; number of binding sites (n), competitive measurements with warfarin (BSA): 1.01; Binding constant (Kb), competitive measurements with warfarin (BSA; BSA with equimolar warfarin (5 × 10^−6 M), 30 min incubation): 52500 M⁻¹; reduction percentages of the binding constants (BSA; BSA with warfarin vs without warfarin): 10%; BSA subdomain the complex binds to (BSA): subdomains IIA and IIB"
